Measurements from the supplement of paper PMC10307832.

What was measured:
Assay in all cases: relative viability (nuclei count vs DMSO), 5 days (fraction); higher = more cells survive
17-AAG + Trametinib = compound: C=CCNC1=C2C[C@@H](C)C[C@H](OC)[C@H](O)[C@@H](C)/C=C(\C)[C@H](OC(N)=O)[C@@H](OC)/C=C\C=C(/C)C(=O)NC(=CC1=O)C2=O [17-AAG] + CC(=O)Nc1cccc(-n2c(=O)n(C3CC3)c(=O)c3c(Nc4ccc(I)cc4F)n(C)c(=O)c(C)c32)c1 [Trametinib] (partner 0.02 µM)
Procedure, shortened: (§1)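 Relative viability is defined as nuclei in treated wells over nuclei in vehicle wells. Duplicate plates were run and medians reported. Lung cancer cell lines in 1536-well plates were dosed by pin tool one day after seeding, with one drug or with a fixed anchor-drug dose plus five library-drug doses (not always all listed) in √10 steps, and nuclei were counted after 5 days.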

17-AAG + OSI-027 = compound: C=CCNC1=C2C[C@@H](C)C[C@H](OC)[C@H](O)[C@@H](C)/C=C(\C)[C@H](OC(N)=O)[C@@H](OC)/C=C\C=C(/C)C(=O)NC(=CC1=O)C2=O [17-AAG] + COc1cccc2cc(-c3nc([C@H]4CC[C@H](C(=O)O)CC4)n4ncnc(N)c34)[nH]c12 [OSI-027] (partner 0.5 µM)
Procedure, shortened: as §1

17-AAG + Lapatinib = compound: C=CCNC1=C2C[C@@H](C)C[C@H](OC)[C@H](O)[C@@H](C)/C=C(\C)[C@H](OC(N)=O)[C@@H](OC)/C=C\C=C(/C)C(=O)NC(=CC1=O)C2=O [17-AAG] + CS(=O)(=O)CCNCc1ccc(-c2ccc3ncnc(Nc4ccc(OCc5cccc(F)c5)c(Cl)c4)c3c2)o1 [Lapatinib] (partner 2 µM)
Procedure, shortened: as §1

17-AAG + Linsitinib = compound: C=CCNC1=C2C[C@@H](C)C[C@H](OC)[C@H](O)[C@@H](C)/C=C(\C)[C@H](OC(N)=O)[C@@H](OC)/C=C\C=C(/C)C(=O)NC(=CC1=O)C2=O [17-AAG] + C[C@]1(O)C[C@@H](c2nc(-c3ccc4ccc(-c5ccccc5)nc4c3)c3c(N)nccn32)C1 [Linsitinib] (partner 1 µM)
Procedure, shortened: as §1

| Cell Line | relative viability (17-AAG + Trametinib; first compound 0.00128 µM) | relative viability (17-AAG + Trametinib; first compound 0.004048 µM) | relative viability (17-AAG + Trametinib; first compound 0.0128 µM) | relative viability (17-AAG + Trametinib; first compound 0.04048 µM) | relative viability (17-AAG + Trametinib; first compound 0.128 µM) | relative viability (17-AAG + OSI-027; first compound 0.00128 µM) | relative viability (17-AAG + OSI-027; first compound 0.004048 µM) | relative viability (17-AAG + OSI-027; first compound 0.0128 µM) | relative viability (17-AAG + OSI-027; first compound 0.04048 µM) | relative viability (17-AAG + OSI-027; first compound 0.128 µM) | relative viability (17-AAG + Lapatinib; first compound 0.00128 µM) | relative viability (17-AAG + Lapatinib; first compound 0.0128 µM) | relative viability (17-AAG + Lapatinib; first compound 0.04048 µM) | relative viability (17-AAG + Lapatinib; first compound 0.128 µM) | relative viability (17-AAG + Linsitinib; first compound 0.00128 µM) | relative viability (17-AAG + Linsitinib; first compound 0.0128 µM) | relative viability (17-AAG + Linsitinib; first compound 0.04048 µM) | relative viability (17-AAG + Linsitinib; first compound 0.128 µM) | relative viability (17-AAG + Lapatinib; first compound 0.004048 µM) | relative viability (17-AAG + Linsitinib; first compound 0.004048 µM) |
| --- | --- | --- | --- | --- | --- | --- | --- | --- | --- | --- | --- | --- | --- | --- | --- | --- | --- | --- | --- | --- |
| HCC-78 | 0.744 | 0.593 | 0.71 | 0.663 | 0.359 | 0.375 | 0.416 | 0.405 | 0.39 | 0.384 | 1.12 | 0.994 | 0.603 | 0.296 | 0.626 | 0.608 | 0.62 | 0.294 |  |  |
| HCC-366 | 0.399 | 0.389 | 0.0548 | 0.0372 | 0.0284 | 0.942 | 0.964 | 0.117 | 0.0472 | 0.037 | 0.858 | 0.0214 | 0.0204 | 0.0219 | 0.52 | 0.0425 | 0.0221 | 0.0229 | 0.691 | 0.659 |
| HCC-827 | 0.508 | 0.508 | 0.502 |  | 0.311 | 0.826 | 0.785 | 0.728 |  | 0.394 | 0.225 | 0.193 |  | 0.259 | 0.902 | 0.946 |  | 0.855 | 0.216 | 0.958 |
| HOP-62 | 0.396 | 0.35 | 0.355 | 0.191 | 0.167 | 0.879 | 0.806 | 0.6 | 0.44 | 0.112 | 0.875 | 0.634 | 0.12 | 0.0921 | 0.783 | 1.08 | 0.819 | 0.455 | 1.03 | 0.917 |
| IA-LM |  |  |  |  |  |  |  |  |  |  | 1.06 | 0.479 | 0.502 | 0.0825 | 0.551 | 0.599 | 0.177 | 0.102 | 0.736 | 0.667 |
| LC-2-ad | 0.974 | 0.954 | 0.875 | 0.408 | 0.223 | 0.699 | 0.542 | 0.426 | 0.301 | 0.241 | 1.01 | 0.548 | 0.126 | 0.0893 | 0.861 | 0.857 | 0.362 | 0.136 | 0.877 | 0.883 |
| LCLC-97TM1 | 0.201 | 0.172 | 0.163 | 0.232 | 0.152 | 0.506 | 0.575 | 0.392 | 0.241 | 0.18 | 0.903 | 0.647 | 0.405 | 0.0945 | 0.192 | 0.211 | 0.269 | 0.182 | 1.12 | 0.198 |
| LCLC-103H | 0.711 | 0.692 | 0.661 | 0.739 | 0.669 | 0.484 | 0.496 | 0.478 | 0.515 | 0.383 |  |  |  |  | 1.15 | 1.13 | 0.965 | 0.992 |  | 1.12 |
| LK-2 | 0.85 | 0.846 | 0.789 | 0.577 | 0.184 | 0.26 | 0.225 | 0.151 | 0.138 | 0.144 | 1.04 | 0.752 | 0.464 | 0.158 | 0.575 | 0.615 | 0.479 | 0.136 | 1.01 | 0.463 |
| LOU-NH91 | 0.795 | 0.747 | 0.584 | 0.434 | 0.387 | 0.666 | 0.618 | 0.443 | 0.359 | 0.316 | 0.852 | 0.521 | 0.328 | 0.36 | 0.874 | 0.587 | 0.478 | 0.311 | 0.795 | 0.678 |
| NCI-H441 | 0.454 | 0.439 | 0.148 | 0.132 | 0.0927 | 0.581 | 0.429 | 0.203 | 0.19 | 0.137 |  |  |  |  | 0.679 | 0.276 | 0.174 | 0.0829 |  | 0.661 |
| NCI-H522 | 0.724 | 0.836 | 0.679 | 0.686 | 0.374 | 0.663 | 0.685 | 0.655 | 0.542 | 0.552 |  |  |  |  |  |  |  |  |  |  |
| NCI-H1299 |  |  |  |  |  |  |  |  |  |  | 0.964 | 0.924 | 0.779 | 0.416 | 0.999 | 0.919 | 0.894 | 0.714 | 0.904 | 0.922 |
| NCI-H1563 |  |  |  |  |  | 0.755 | 0.647 | 0.564 | 0.509 | 0.481 | 0.878 | 0.567 | 0.606 | 0.618 | 1.17 | 0.668 | 0.623 | 0.622 | 0.729 | 0.952 |
| NCI-H1648 |  | 0.541 | 0.463 | 0.368 | 0.219 | 0.274 |  | 0.345 | 0.261 | 0.259 |  |  |  |  |  |  |  |  |  |  |
| NCI-H1650 | 0.657 | 0.252 | 0.143 | 0.126 | 0.114 | 0.483 | 0.226 | 0.139 | 0.189 | 0.176 | 0.624 | 0.133 | 0.171 | 0.175 |  |  |  |  | 0.303 |  |
| NCI-H1703 |  |  |  |  |  |  |  |  |  |  | 0.998 | 0.182 | 0.176 | 0.208 | 0.3 | 0.115 | 0.148 | 0.0982 | 0.315 | 0.687 |
| NCI-H2170 | 0.958 | 0.843 | 0.91 | 0.402 | 0.134 | 0.652 | 0.585 | 0.385 | 0.187 | 0.118 | 0.281 | 0.24 | 0.234 | 0.197 |  |  |  |  | 0.283 |  |
| NCI-H2342 | 0.8 | 0.799 | 0.79 | 0.631 | 0.7 | 0.552 | 0.716 | 0.584 | 0.504 | 0.425 |  |  |  |  |  |  |  |  |  |  |
| SW 900 | 0.587 | 0.513 | 0.208 | 0.128 | 0.153 | 0.476 | 0.487 | 0.134 | 0.0879 | 0.0977 |  |  |  |  |  |  |  |  |  |  |
